# According to US20140045807A2, “THE USE OF 3-METHOXY-PREGNENOLONE FOR THE PREPARATION OF A DRUG FOR TREATING A TRAUMATIC BRAIN INJURY” (priority 2004, published 2014):
# Experiments:
# CHI traumatized animals = test: MRI of ventricular dilatation after Closed Head Injury (CHI); assay type: in vivo, rat; details: 20 mg/kg starting 24 hours post-trauma, day 28, compared to the vehicle
# Procedure: FIG. 17: Ventricular dilatation of Control animals injected with sesame oil (Control) and CHI traumatized animals injected with sesame oil (CHI-D0), or MAP4343 at 10 mg/kg (CHI-D1) or 20 mg/kg (CHI-D2) at day 28 post-trauma. (A) Representative MRI images.
# The model “Closed Head Injury” (CHI), also commonly known as “weight-drop”, “impact-acceleration” or Marmarou model, allows the induction of TBI on a closed skull and generates diffuse axonal injuries (Holtzer et al 2001). After anesthesia induction, the scalp was incised, a piece of metal (diameter […], height 3 mm)—designed to protect against skull fracture—was glued to the skull, between the lambda and bregma. The animal was then placed on a foam bed and a cylindrical metallic 230-g weight was dropped from 2 m through a metal tubing onto the disk. At the very moment of the impact, the head of the animal plunged briefly in the foam bed, which leads to an acceleration/deceleration of the brain inside the skull. […]
# MRI imaging of rats was performed at day 28 post-trauma. Based on MRI imaging, ventricular dilatation induced by CHI trauma was analyzed in CHI traumatized rats injected from 24 hours post-trauma with sesame oil (CHI-D0), or 3-methoxy-PREG (MAP4343) at 10 mg/kg (CHI-D1) or 20 mg/kg (CHI-D2).
# [1] = target: purified tubulin and MAP2 (Homo sapiens, UniProt P11137); test: MAP2-induced polymerization of microtubules in vitro (optical density at 345 nm); assay type: biochemical
# Procedure: Purified MAP2 and tubulin are mixed in the presence of GTP at 4° C. in a spectrophotometer cuvette. Polymerization is induced by heating at 37° C. and is followed by the increase in optical density (OD) which indicates the quantity of polymers formed.
# This in vitro test measures the effect of molecules on the MAP2-induced polymerization of microtubules. This polymerization occurs when MAP2 proteins and tubulin are mixed at adequate concentrations in the presence of GTP. It is accompanied by an increase in optical density measured at 345 nm for 15 to 30 minutes with a UNICON spectrophotometer thermostated at 37° C. (FIG. 1).
# Activity is measured by the increase in optical density at 345 nm of a mixture of purified tubulin and MAP2, incubated at 37° C. in the presence of GTP.
# [2] = system: Sprague Dawley rats, recognition memory; test: Novel object recognition test (NOR); assay type: in vivo, rat
# Procedure: FIG. 14: 3-methoxy-PREG (43B) enhanced retention of recognition memory in naïve animals and recovered recognition memory deficits in social isolated rats. (A) Sesame Oil treated rats cannot discriminate between the novel and the familiar object following a 4 h inter trial interval (ITI) time. In contrast, 43B (10 mg/kg subcutaneously) treated rats retain the ability to discriminate between the novel and the familiar object. Mean±SEM, n=11-12 per group. ***p<0.001 vs sesame oil (T-test). (B) Isolated animals treated with sesame oil cannot discriminate between the novel and the familiar object following […], while grouped (control) rats clearly discriminate. […]
# Cognitive dysfunction, including impaired recognition memory, are common features in depressed patients (Egeland et al., Scand. J. Psychol. 2005). […] Recognition memory was assessed using the NOR test which is a two-trial test of recognition memory based on the spontaneous preference of rats for novelty (Ennaceur and Delacour, Behav. Brain. Res. 1988; Bianchi et al., EJN 2006). […] The ability of the animals to discriminate between the novel and the familiar object is then expressed as: D2-INDEX: [novel object (sec)-familiar object (sec)]/[novel object (sec)+familiar object (sec)] […]
# PC12 cells = test: Neuritic growth / sprouting in PC12 cells with NGF; assay type: cell-based, rat; details: increasing concentrations, 2, 5 and 8 days of culture (FIG. 3)
# Procedure: Each molecule was tested in three culture wells. Measurements were taken for 200 cells per well using Scion Image software.
# Neurite (neurite) length was measured for 200 cells per well after 2, 5, and 8 days of culture.
# Stimulation of neuritic sprouting is conducted on PC12 cells differentiated in the presence of NGF (10 ng/ml) and the steroid being tested (30 μM) for 3 days. For each condition, the average length of the longest 200 neurites in each cell is measured simultaneously for 3 cultures.
# [3] = 40 μM, compared to control kinetics with solvent alone
# Sequence of purified tubulin and MAP2 (P11137 whole entry): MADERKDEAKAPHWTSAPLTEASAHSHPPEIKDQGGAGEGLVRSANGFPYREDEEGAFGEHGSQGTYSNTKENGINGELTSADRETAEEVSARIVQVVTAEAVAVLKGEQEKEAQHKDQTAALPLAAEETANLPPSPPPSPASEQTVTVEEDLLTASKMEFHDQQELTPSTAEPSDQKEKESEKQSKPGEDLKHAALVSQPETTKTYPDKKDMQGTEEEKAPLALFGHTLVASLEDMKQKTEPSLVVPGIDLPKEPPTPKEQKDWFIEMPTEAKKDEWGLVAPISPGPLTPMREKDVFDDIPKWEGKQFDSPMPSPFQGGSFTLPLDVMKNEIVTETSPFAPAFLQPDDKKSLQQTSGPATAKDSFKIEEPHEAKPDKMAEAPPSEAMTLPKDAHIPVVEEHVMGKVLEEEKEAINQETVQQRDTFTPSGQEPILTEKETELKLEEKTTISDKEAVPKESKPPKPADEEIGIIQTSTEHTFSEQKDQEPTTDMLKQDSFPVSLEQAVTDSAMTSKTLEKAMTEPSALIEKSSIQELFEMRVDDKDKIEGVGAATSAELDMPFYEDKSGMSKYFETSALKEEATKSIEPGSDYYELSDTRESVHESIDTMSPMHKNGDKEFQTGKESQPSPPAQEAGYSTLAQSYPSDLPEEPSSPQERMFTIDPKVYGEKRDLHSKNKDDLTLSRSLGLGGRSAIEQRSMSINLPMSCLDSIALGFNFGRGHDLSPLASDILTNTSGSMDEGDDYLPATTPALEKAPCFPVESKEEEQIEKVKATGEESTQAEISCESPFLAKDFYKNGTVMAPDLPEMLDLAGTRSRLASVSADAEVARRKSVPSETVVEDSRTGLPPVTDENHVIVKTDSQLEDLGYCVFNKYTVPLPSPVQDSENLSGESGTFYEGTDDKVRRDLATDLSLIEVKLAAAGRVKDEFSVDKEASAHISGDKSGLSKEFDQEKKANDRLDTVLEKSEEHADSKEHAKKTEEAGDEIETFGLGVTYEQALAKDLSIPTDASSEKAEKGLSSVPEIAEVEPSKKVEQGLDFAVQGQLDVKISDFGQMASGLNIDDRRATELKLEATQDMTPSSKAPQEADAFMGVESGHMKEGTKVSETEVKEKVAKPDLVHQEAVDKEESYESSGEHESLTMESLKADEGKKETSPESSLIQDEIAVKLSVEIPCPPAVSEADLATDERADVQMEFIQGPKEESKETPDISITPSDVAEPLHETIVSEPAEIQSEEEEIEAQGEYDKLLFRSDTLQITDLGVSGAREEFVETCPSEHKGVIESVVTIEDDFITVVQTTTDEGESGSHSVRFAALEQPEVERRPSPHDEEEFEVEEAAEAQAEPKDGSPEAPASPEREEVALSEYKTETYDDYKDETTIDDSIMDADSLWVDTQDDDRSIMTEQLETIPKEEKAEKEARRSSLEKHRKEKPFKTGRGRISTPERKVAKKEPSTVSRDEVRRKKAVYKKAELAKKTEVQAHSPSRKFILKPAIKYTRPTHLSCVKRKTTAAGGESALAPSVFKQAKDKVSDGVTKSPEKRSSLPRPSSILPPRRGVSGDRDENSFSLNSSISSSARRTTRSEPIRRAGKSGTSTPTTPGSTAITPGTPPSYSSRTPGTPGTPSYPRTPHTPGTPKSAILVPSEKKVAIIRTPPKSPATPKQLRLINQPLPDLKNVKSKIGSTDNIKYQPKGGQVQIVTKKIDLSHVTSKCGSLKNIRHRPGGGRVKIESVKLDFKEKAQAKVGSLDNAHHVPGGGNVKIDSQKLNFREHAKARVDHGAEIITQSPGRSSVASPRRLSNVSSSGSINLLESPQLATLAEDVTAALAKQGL
smiles,measurement,setting,value
"CO[C@H]1CC[C@@]2(C)C(=CC[C@H]3[C@@H]4CC[C@H](C(C)=O)[C@@]4(C)CC[C@@H]32)C1 [3-methoxy-PREG, 3β-methoxy-pregna-5-ene-20-one]","ventricular dilatation (ventricles area, MRI)",CHI traumatized animals,significantly decreases the ventricular dilatation
same,Lag time of microtubule polymerization,[1]; [3],decreased
same,polymerization rate and quantity of microtubules,[1]; [3],clearly increase
same,effect on microtubule polymerization,"[1]; MAP2 and tubulin with GTP, 37° C.",activates microtubule polymerization
same,Activity (increase in optical density at 345 nm),"[1]; purified tubulin and MAP2, 37° C., GTP",100% of PREG
same,"discrimination of novel and familiar object, social isolated rats","[2]; 10 mg/kg subcutaneously 1 h before task, ITI of 1 h",efficiently discriminated between the familiar and the novel object
same,"discrimination of novel and familiar object, naïve animals","[2]; 10 mg/kg subcutaneously immediately after T1, ITI of 4 h",discriminated between the novel and the familiar object
same,increase in the length of neurites formed in the presence of NGF,PC12 cells,≤ 500%
